Data: patent US10816552B2 (The Governing Council of the University of Toronto, priority 2014, dated 2020)

Experiments:
HCT116 cells = test: Competitive labelling with pimonidazole (mass cytometry); format: cell-based; details: HCT116, Telox-2 10 μM, near-anoxic
Method: Concentration Telox-2=10 μM. The absolute ^130Te signal was measured using mass cytometry.
HCT 116 cells (see sections i and ii) were incubated in media containing Telox or Telox2 (100 μM, added as a neat solution in sterile DMSO; final [DMSO]=0.1%) for 3 hours under atmosphere containing an appropriate concentration of O2. Following incubation, the media was removed, cells were washed with sterile PBS, and then separated from the incubation plate via trypsinization (37° C., 10 min) and gentle scraping. The cell suspension was pelleted and resuspended in PBS containing β-ME (1.0 mL, 100 mM). Cells were pelleted, resuspended in PBS (900 μL, no β-ME), and fixed with formaldehyde (100 μL, 37% solution) for 25 minutes. Following fixation, cells were pelleted, resuspended in PBS containing β-ME (1.0 mL, 100 mM), and pelleted once again. Cells were then resuspended in PBS ([…], no β-ME) and incubated with either the Ir-containing nucleic acid intercalator (hypoxic cells) or the Rh containing nucleic acid intercalator (normoxic cells) (10 μL, 100 μM solution in sterile PBS) for 20 minutes. Cells were then pelleted and resuspended in PBS (1.0 mL, no β-ME) twice. Cell pellets were then resuspended in PBS containing ^151/153EU beads (1/10 dilution of CyTOF® calibration beads, DVS Sciences, 1.0-2.5 mL depending on pellet size). […]

[1] = tested on: NADPH:cytochrome P450 oxidoreductase (POR); format: cell-based; details: mutant HCT116, 10 μM, 3 hours
Method: FIGS. 10A-C show a) the mass cytometry histograms of wild-type HCT116 cells incubated with 10 μM of the exemplary compound, Telox-2, for 3 hours in atmosphere containing either 21% O2, 1% O2, 0.2% O2, or <0.02% O2); b) the mass cytometry histograms of mutant HCT116 cells overexpressing POR incubated with 10 μM Telox-2 for 3 hours in atmosphere containing either 21% O2, 1% O2, 0.2% O2 or <0.02% O2; and c) the mass cytometry histograms of mutant HCT116 cells unable to express POR incubated with 10 μM Telox-2 for 3 hours in atmosphere containing either 21% O2, 1% O2, 0.2% O2, or <0.02% O2.
To confirm the reductive metabolism of Telox-2 it investigated using mutant HCT116 cell lines that either overexpressed NADPH:cytochrome P450 oxidoreductase (POR) or had this enzyme knocked out (FIG. 10 part b).

Jurkat cells = test: Metabolic toxicity assay (WST-1) in Jurkat cells; format: cell-based; details: Jurkat cells, 24 hour incubation, WST-1
Method: FIGS. 7A, B and C show a) and b) the cell proliferation rate of HCT116 cells as a function of time in the presence of various concentrations of the exemplary compound, Telox-2 (confluency analysis); and c) the metabolic toxicity of the exemplary compound, Telox-2, in Jurkat cells as measured by reduction of WST-1. Cells were incubated with Telox-2 for 24 hours prior to a 30 minute exposure to WST-1.
A 96 well clear fluorometer plate was loaded with 200 μL of Jurkat cells at a culture density of 1×10^6 cells per mL. To each well was added an appropriate amount of a stock solution of Telox/Telox2 in sterile DMSO to reach a desired concentration of Telox/Telox2 (1-1000 micromole). The concentration of DMSO was 1% in all wells. Cells were allowed to incubate for 24 h at 37° C. under normal atmosphere, after which 20 μL of a commercially available solution of WST-1 in PBS (Roche Diagnostics, product #05015944001) was added to each well (gentle pipetting evenly distributed the reagent throughout the well). Cells were allowed to incubate for a further 0.5 h at 37° C. under normal atmosphere, followed by subsequent measurement of the absorbance of each well at 450 nm using a TECAN Safire 2 plate reader. Data was background corrected vs. wells that contained cell growth media (without cells), an appropriate concentration of Telox2, a final concentration of DMSO=1%, and WST-1. Background correction wells were incubated in the same manner as described for cell-positive wells.
To investigate the organotellurium compounds of study as potential probe moieties for MC, the metabolic toxicity of the compounds was evaluated. Organotellurium compounds are often described as toxic, with aryl telluroethers showing cellular toxicity below 100 μM across a range of cell lines under different assay conditions.^9-11,38,39 The toxicity of compounds 8-11 was investigated in a commonly used Jurkat cell line after a 24 hour incubation using the metabolic probe WST-1 (Roche Diagnostics, Laval, Quebec) as per manufacturer's instructions. As compounds 8, 9 and 10 are expected to show degradation over the time frame of the toxicity assay, based on the NMR stability studies, these experiments show the relative toxicity of the compounds and their resulting degradation products (Table 2). […] The LD50 values of the exemplary organotellurium compounds of the present application provide promise for their use as activity based MC probes since the general MC experiment can be achieved at concentrations of ˜100 μM.^5

[2] = Empirical log P by UV-Vis assay; format: physicochemical; details: aqueous buffer; UV-Vis assay conditions

Question: Which “labelling under competitive conditions with pimonidazole” value (HCT116 cells) does the source give for `O=[N+]([O-])c1nccn1CCc1ccc[te]1` [Telox-2, 2-nitro-1-(2-(tellurophen-2-yl)ethyl)-1H-imidazole] here?
Answer: Its value is “reduced in a (pimonidazole) dose-dependent manner”.

Question: And the “labelling in POR-knockout cell line compared to wild type” value [1]?
Answer: The value was “nearly identical to that in the wild type”.

Question: What about the “labelling in cell line overexpressing POR compared to wild type” value [1] of the same molecule?
Answer: The value was “greatly enhanced labelling”.

Question: And the “LD50 (metabolic toxicity)” value (Jurkat cells)?
Answer: Its value is about 270 µM.

Question: What about the logP [2] of the same molecule?
Answer: The logP was 1.3.
